Results as given in patent US20220324770A1, “NITRIFICATION INHIBITORS” (The University of Melbourne, priority 2019, published 2022).

Assays:
Dahlen soil = experiment: Soil thin-layer chromatography (TLC) leaching study, Dahlen soil; type: physicochemical; settings: Dahlen soil TLC
Description: (§1) TLC plates were prepared based on methods described in the literature (Helling, C. S., Turner, B. C, Science 1968, 162, 562-563; Mohammad, A., Jabeen, N., JPC—Journal of Planar Chromatography—Modern TLC 2003, 16, 137-143). Masking tape (3 layers, ˜[…] total thickness) was used to outline three columns (4 cm W×12 cm H) on a glass TLC plate (20×20 cm). A slurry of freshly ground soil in distilled H2O (˜2:3 m/v) was then poured onto the prepared plate and spread evenly using a glass rod. Once even, the plate was dried overnight in an oven at 35° C. Careful removal of the masking tape afforded the TLC plate ready for sample application.
(§2) Samples of DMP (the active core of DMPP) or Compound 16 (˜1 mg) dissolved in acetone (100 μL) were pipetted in a straight line across the soil, 2 cm above the base of the plate. Application band thickness was kept under 0.5 cm. After 30 mins of drying time, the TLC plate was developed inside a glass developing chamber with distilled H2O (depth of 0.5 cm) until the solvent front reached the top of the soil (˜1 hr). […] The plate was then allowed to air dry overnight.
(§3) Once dry, the plate was divided into six horizontal bands corresponding to Rf values of: (1) <0.05 (baseline), (2) 0.05 to 0.25, (3) 0.25 to 0.45, (4) 0.45 to 0.65, (5) 0.65 to 0.85, and (6) 0.85 to 1. In sequence, soil in each band was carefully scraped off the glass backing and collected in vials. Special care was taken to avoid cross-contamination between soil of different bands, and the separate channels.
(§4) Individual soil bands collected from the TLC plate were extracted as follows: • 1. Addition of an aqueous solution of CaCl2/MgSO4 (0.01M and 0.45M respectively, 2 mL). • 2. Sonication for 5 minutes then manual shaking for 30 seconds. • 3. Addition of methyl-tert-butyl ether (MTBE, 2 mL) then manual shaking for 30 seconds. • 4. Sonication for 10 minutes then manual shaking for 30 seconds. • 5. Rested until soil began to settle, then frozen overnight at −20° C. • 6. After partial defrosting, the ethereal extract was filtered through nylon syringe filters (FilterBio®, 13 mm diameter, 0.45 µm pore size).
(§5) The filtered ethereal extracts (450 μL) were spiked with 50 μL of a standard solution of either cyclododecanone in MTBE (1.97 mg/mL, for DMP-treated samples) or cyclooctanone in MTBE (6.37 mg/mL, for 16-treated samples). Samples were then directly analysed by GC-MS (method: 70° C. for 5 mins, then ramp 10° C./min to 250° C., hold at 250° C. for 17 mins [total run time=40 minutes]) to analyse the presence or absence of the inhibitor in each soil band.
(§6) GC-MS peak areas calculated for the standards cyclooctanone (Rt=9.1 mins) and cyclododecanone (Rt=15.8 mins) were compared to those calculated for Compound 16 (Rt=13.9 mins) and DMP (Rt=7.6 mins) respectively, for each soil sample extract where inhibitor was detected as follows:
(§7) As each treatment was run in triplicate, mean values are reported for detected inhibitor percentages for each Rf band, with errors presented as the standard deviation.
as §2, with “the DCD” for “DMP (the active core of DMPP) or Compound 16”, “methanol (300” for “acetone (100”, “in” for “with”
(§8) Individual soil bands collected from the TLC plate were extracted as follows: • 1. Addition of methanol (2 mL). • 2. Manual shaking for 30 seconds following sonication for 15 minutes. • 3. Once soil began to settle, the methanolic extract was filtered through nylon syringe filters (FilterBio®, 13 mm diameter, 0.45 µm pore size). • 4. 300 μL of the methanolic extracts were evaporated under nitrogen flow, and then the residues was taken up in ultrapure acetonitrile (1 mL). • 5. […]

South Johnstone soil = experiment: Soil thin-layer chromatography (TLC) leaching study, South Johnstone soil; type: physicochemical
Description: as §1, §2, §3, §4, §5, §6, §7
as §2, with “the DCD” for “DMP (the active core of DMPP) or Compound 16”, “methanol (300” for “acetone (100”, “in” for “with”
as §8

SMILES | Rf range of largest DCD accumulation (Dahlen soil; HPLC detection, preliminary results) | Rf range of largest DCD accumulation (South Johnstone soil; South Johnstone soil TLC, HPLC detection, preliminary results) | Rf range in which the majority of the inhibitor was detected (Dahlen soil) | Detected Inhibitor (%) (Dahlen soil; Rf 0.45-0.65) | Detected Inhibitor (%) (Dahlen soil; Rf 0.65-0.85) | Detected Inhibitor (%) (Dahlen soil; Rf 0.85-1) | Detected Inhibitor (%) (South Johnstone soil; South Johnstone soil TLC, Rf 0.25-0.45) | Detected Inhibitor (%) (South Johnstone soil; South Johnstone soil TLC, Rf 0.45-0.65) | Detected Inhibitor (%) (South Johnstone soil; South Johnstone soil TLC, Rf 0.65-0.85) | leaching in soil TLC (South Johnstone soil; acidic South Johnstone soil)
N#CN=C(N)N [DCD, dicyandiamide, reference compound] | 0.65-1 | 0.65-1 |  |  |  |  |  |  |  | 
Cc1c[nH]nc1C [DMP, 3,4-dimethylpyrazole, reference compound] |  |  | 0.65-0.85 | 0.1 ± 0.2 | 72 ± 16 | 28 ± 16 | 2 ± 2 | 56 ± 12 | 42 ± 13 | leach in a narrower band and to a lesser extent than Compound 16
